Data reported in ChEMBL document CHEMBL5550217, “Discovery of gem-Dimethyl-hydroxymethylpyridine Derivatives as Potent Non-nucleoside RSV Polymerase Inhibitors” (J Med Chem, 2024).

Key:
[1] = Inhibition of RSV RNA polymerase assessed as RNA products using […] template by SPA primer extension enzymatic assay; parameters: species or system Respiratory syncytial virus
[2] = system: Respiratory syncytial virus; assay: Antiviral activity against Respiratory syncytial virus (RSV)-A2-eGFP infected in human HeLa cells assessed as eGFP expression measured after 3 days by RSV Cell-based infection assay; assay type: functional, organism-based; details: 72 h
[3] = Cytotoxicity against human HeLa cells measured after 3 days by ATPlite kit assay; assay type: toxicity, cell-based; details: time 3 day
[4] = Metabolic stability in human hepatocytes assessed as intrinsic clearance per 10^6 cells at 1 uM measured upto 180 mins by LC-MS/MS analysis; assay type: ADME, cell-based, Hepatocyte; details: read-out: CLH
[5] = Metabolic stability in rat hepatocytes assessed as intrinsic clearance per 10^6 cells at 1 uM measured upto 180 mins by LC-MS/MS analysis; assay type: ADME, cell-based, Hepatocyte; details: read-out: CLH
[6] = Clearance in Sprague-Dawley rat at 1.25 mg/kg, iv; assay type: ADME, organism-based; details: in vivo
[7] = system: Respiratory syncytial virus; assay: Antiviral activity against Respiratory syncytial virus (RSV) infected in human APC-126 cells assessed as replicon by measuring protein adjusted effective concentration in the presence of 40% human serum measured after 3 days by Renilla Glo assay; assay type: functional, organism-based; details: 72 h
[8] = system: Respiratory syncytial virus; assay: Antiviral activity against Respiratory syncytial virus (RSV) assessed as reduction in replicon RNA by Renilla Luciferase assay system; assay type: functional, organism-based; details: human respiratory syncytial virus
[9] = Metabolic stability in human hepatocytes assessed as intrinsic clearance measured per 10^6 cells; assay type: ADME, cell-based, Hepatocyte; details: read-out: CLH
[10] = Metabolic stability in rat hepatocytes assessed as intrinsic clearance measured per 10^6 cells; assay type: ADME, cell-based, Hepatocyte; details: read-out: CLH
[11] = Inhibition of RSV RNA polymerase assessed as RNA products using […] template by Flashplate primer extension enzymatic assay; parameters: species or system Respiratory syncytial virus

SMILES | IC50 [1] [nM] | EC50 [2] [nM] | CC50 at 72 h [3] [nM] | hepatocyte CLint at 1 µM [4] [µL/min/1e6 cells] | hepatocyte CLint at 1 µM [5] [µL/min/1e6 cells] | clearance [6] [mL/min/kg] | EC50 [7] [nM] | EC50 [8] [nM] | hepatocyte CLint [9] [µL/min/1e6 cells] | hepatocyte CLint [10] [µL/min/1e6 cells] | IC50 [11] [nM]
COc1cc(C(=O)NC[C@](O)(c2cc3c(c(-c4ccc(F)cc4)n2)OC[C@]3(C)NS(C)(=O)=O)C(F)(F)F)cc2cc(C)cnc12 | 0.36 | 1.3 | 11400 | 3.7 | – | – | – | – | – | – | –
COc1cc(C(=O)NC[C@](O)(c2cc3c(c(-c4ccc(F)cc4)n2)OC[C@]3(C)NC(C)=O)C(F)(F)F)cc2cc(C)cnc12 | 0.83 | 2.7 | 14500 | 4.9 | 54 | 13.6 | – | – | – | – | –
CCc1cc2cc(C(=O)NC[C@](O)(c3cc(C(C)(C)O)c(F)c(-c4ccc(F)cc4)n3)C(F)(F)F)cc(OC)c2nn1 | 0.37 | 3.2 | 21800 | 14 | – | – | 41 | – | – | – | –
COc1nc2c(OC)cc(C(=O)NC[C@](O)(c3cc(C(C)(C)O)c(F)c(-c4ccc(F)cc4)n3)C(F)(F)F)cc2cc1C | 1.52 | 34 | 31000 | – | – | – | 1690 | – | – | – | –
COc1cc(C(=O)NC[C@](O)(c2cc3c(c(-c4ccc(F)cc4)n2)OC[C@]3(C)N)C(F)(F)F)ccc1OC[C@@H](C)O | 5.1 | 10 | 58400 | 31 | 54 | 89 | – | 10 | 31 | 54 | –
COc1cc(C(=O)NC[C@](O)(c2cc3c(c(-c4ccc(F)cc4)n2)OC[C@]3(C)NS(C)(=O)=O)C(F)(F)F)ccc1OC[C@@H](C)O | 4.8 | 12 | 54300 | 11 | 28 | 34 | – | – | – | – | –
COc1cc(C(=O)NC[C@](O)(c2cc(C(C)(C)O)c(F)c(-c3ccc(F)cc3)n2)C(F)(F)F)cc2cc(C3CC3)nnc12 | 1.17 | 2.6 | 8800 | < 1.2 | – | – | 225 | – | – | – | –
COc1cc(C(=O)NC[C@](O)(c2cc(C(C)(C)O)c(F)c(-c3ccc(F)cc3)n2)C(F)(F)F)cc2cc(OC(F)F)nnc12 | 0.91 | 5.1 | 8900 | – | – | – | 1240 | – | – | – | –
COc1cc(C(=O)NC[C@](O)(c2cc(C(C)(C)O)c(F)c(-c3ccc(F)cc3)n2)C(F)(F)F)cc2cc(C)cnc12 | 0.42 | 4.5 | 14600 | 6.6 | 28 | – | 43 | – | – | – | –
COc1cc(C(=O)NC[C@](O)(c2cc3c(c(-c4ccc(F)cc4)n2)OC[C@]3(C)NC(C)=O)C(F)(F)F)cc2cccnc12 | 4.3 | 15 | 12700 | 8.8 | 11 | 19 | – | – | – | – | –
COc1cc(C(=O)NC[C@](O)(c2cc3c(c(-c4ccc(F)cc4)n2)OC[C@]3(C)NC(C)=O)C(F)(F)F)ccc1OC[C@@H](C)O | 23 | 14 | 73200 | – | 13 | – | – | – | – | – | –
CC(=O)N[C@@]1(C)COc2c1cc([C@@](O)(CNC(=O)c1cc(OC3CC3)c3ncccc3c1)C(F)(F)F)nc2-c1ccc(F)cc1 | 3.7 | 19 | 46800 | < 1.9 | 11 | 6.13 | – | – | – | – | –
COc1cc(C(=O)NC[C@](O)(c2cc(C(C)(C)O)c(F)c(-c3ccc(F)cc3)n2)C(F)(F)F)cc2cc(F)nnc12 | 1.31 | 6.8 | 17300 | < 1.9 | 93 | – | 330 | – | – | – | –
COc1cc(C(=O)NC[C@](O)(c2cc(C(C)(C)O)c(F)c(-c3ccc(F)cc3)n2)C(F)(F)F)cc2cc(C3CC3)cnc12 | – | 54 | 12900 | < 1.9 | – | – | 2170 | – | – | – | 2
CC(=O)N[C@@]1(C)COc2c1cc([C@@](O)(CNC(=O)c1cc(OC3CC3)c3ncc(F)cc3c1)C(F)(F)F)nc2-c1ccc(F)cc1 | 3.6 | 22 | 14000 | < 1.9 | – | 2.51 | – | – | – | – | –
COc1cc(C(=O)NC[C@](O)(c2cc(C(C)(C)O)c(F)c(-c3ccc(F)cc3)n2)C(F)(F)F)cc2cc(Cl)nnc12 | 0.22 | 1 | 9900 | < 1.2 | 13 | – | 110 | – | – | – | –
COc1cc(C(=O)NC[C@](O)(c2cc(C(C)(C)O)c(F)c(-c3ccc(F)cc3)n2)C(F)(F)F)cc2cc(C(F)F)nnc12 | 0.4 | 3.5 | 18300 | < 1.9 | 6.9 | – | 190 | – | – | – | –
COc1cc(C(=O)NC[C@](O)(c2cc(C(C)(C)O)c(F)c(-c3ccc(F)cc3)n2)C(F)(F)F)cc2cc(C)c(F)nc12 | 1.1 | 3.8 | 13100 | 4.3 | 57 | – | 48 | – | – | – | –
COc1cc(C(=O)NC[C@](O)(c2cc(C(C)(C)O)c(F)c(-c3ccc(F)cc3)n2)C(F)(F)F)cc2cc(C(F)F)cnc12 | – | 3.6 | 13200 | < 1.9 | 19 | – | 97 | – | – | – | 1.7
COc1cc(C(=O)NC[C@](O)(c2cc(C(C)(C)O)c(F)c(-c3ccc(F)cc3)n2)C(F)(F)F)cc2cc(CF)cnc12 | – | 12.5 | 39800 | – | – | – | – | – | – | – | 3.82
COc1cc(C(=O)NC[C@](O)(c2cc3c(c(-c4ccc(F)cc4)n2)OC[C@]3(C)NS(C)(=O)=O)C(F)(F)F)cc2nc(N)sc12 | 0.52 | 1.4 | 13600 | 12 | 72 | 67.3 | – | – | – | – | –
COc1cc(C(=O)NC[C@](O)(c2cc(C(C)(C)O)c(F)c(-c3ccc(F)cc3)n2)C(F)(F)F)cc2cc(C(F)(F)F)cnc12 | – | 26 | 12600 | < 1.9 | < 1.9 | – | 802 | – | – | – | 0.72
COc1cc(C(=O)NC[C@](O)(c2cc(C(C)(C)O)c(F)c(-c3ccc(F)cc3)n2)C(F)(F)F)cc2cccnc12 | 0.63 | 11 | 16000 | 4.1 | 120 | – | 310 | – | – | – | –
COc1cc(C(=O)NC[C@](O)(c2cc3c(c(-c4ccc(F)cc4)n2)OC[C@]3(C)NS(C)(=O)=O)C(F)(F)F)cc2cccnc12 | 0.7 | 5.3 | 10200 | 3 | 73 | 60.9 | – | – | – | – | –
COc1cc(C(=O)NC[C@](O)(c2nc(-c3ccc(F)cc3)c(Cl)c(C(C)(C)O)c2F)C(F)(F)F)cc2cc(C)cnc12 | 2.9 | 4.8 | 45800 | – | – | – | – | – | – | – | –
COc1cc(C(=O)NC[C@](O)(c2nc(-c3ccc(F)cc3)c(F)c(C(C)(C)O)c2F)C(F)(F)F)cc2cc(C)cnc12 | 0.25 | 2.6 | 43000 | 9.7 | – | – | – | – | – | – | –
COc1cc(C(=O)NC[C@](O)(c2cc(C(C)(C)O)c(Cl)c(-c3ccc(F)cc3)n2)C(F)(F)F)cc2cc(C)cnc12 | 1.4 | 1.7 | 21700 | 4.3 | – | – | – | – | – | – | –
